# Assay results: paper PMC8404199, “Structure–Activity Relationships of Triple-Action Platinum(IV) Prodrugs with Albumin-Binding Properties and Immunomodulating Ligands” (Journal of Medicinal Chemistry, 2021)
# Read-outs that look alike come from different tables or passages of the source.
# Experiments:
# [1] = tested on: murine CT26 colon cancer cells; assay: MTT cytotoxicity assay in CT26 cells; format: cell-based
# Protocol: (§1) Cells were additionally incubated with 5-fold equimolar concentrations of ascorbic acid to increase the reduction rate of the compounds. Cell viability was measured by the MTT-based vitality assay (EZ4U; Biomedica, Vienna, Austria), following the manufacturer’s recommendations.
# [2] = tested on: human HCT116 colon cancer cells; assay: MTT cytotoxicity assay in HCT116 cells; format: cell-based
# Protocol: as §1
# [3] = tested on: human embryonic kidney cells (HEK293); assay: MTT cytotoxicity assay in non-malignant HEK293 cells; format: cell-based; conditions: 72 h
# Protocol: (§2) The cells were seeded at 3500–6000 cells/well in 96-well plates depending on the proliferation rate of the respective cell line and allowed to recover for 24 h. Subsequently, the cells were treated at indicated concentrations for 48 or 72 h. Cells were additionally incubated with 5-fold equimolar concentrations of ascorbic acid to increase the reduction rate of the compounds. Cell viability was measured by the MTT-based vitality assay (EZ4U; Biomedica, Vienna, Austria), following the manufacturer’s recommendations.
# [4] = tested on: human hepatic cell line (WRL68); assay: MTT cytotoxicity assay in non-malignant WRL68 cells; format: cell-based; conditions: 72 h
# Protocol: as §2
# [5] = tested on: human SKOV3 cancer cells; assay: MTT cytotoxicity assay in SKOV3 cells; format: cell-based; conditions: 72 h incubation
# Protocol: as §2
# [6] = tested on: VM7 melanoma cancer cells; assay: MTT cytotoxicity assay in VM7 cells; format: cell-based, human; conditions: 72 h
# Protocol: as §2
# [7] = tested on: SKOV3 cancer cells; assay: Long-term cytotoxicity assay (crystal violet) in SKOV3 cells; format: cell-based, human; conditions: 168 h, crystal violet stain, mean ± SD
# Protocol: SKOV3 cells were seeded in duplicates at 5000 cells/well in 24-well plates and allowed to recover for 24 h. Subsequently, the cells were treated at the indicated concentrations for 168 h. Cells were fixed with ice-cold methanol (20 min at 4 °C), washed with PBS, and stained with crystal violet. Subsequently, colony formation was inspected, and the fluorescence signal was detected using Typhoon Trio imager (GE Healthcare, Little Chalfont, UK) at 610/30 nm BP and analyzed by ImageJ software.
# [8] = log D7.4 determination by shake flask method and ICP-MS; format: physicochemical; conditions: n-octanol/phosphate buffer pH 7.4, Pt by ICP-MS
# Protocol: 50 mM stock solutions of the succinimide complexes in DMF were diluted in phosphate buffer (20 mM, pH 7.4, pre-saturated with n-octanol) to a final concentration of 50 μM drug and 0.1% DMF. The platinum content of these aqueous solutions was measured by ICP–MS (see above). The solutions were mixed 1:1 with n-octanol and shaken on a 360° rotatable rack for 3 h. The solutions were centrifuged for 5 min (860g, RT), the aqueous layers were carefully removed, and their Pt content was measured by ICP–MS. Experiments were performed and measured in duplicates, and averages were used for further calculations. log D7.4 values were calculated by the following equation [drawing 1]
# [9] = UHPLC reduction experiments with L-ascorbic acid; format: physicochemical; conditions: 1 mM complex, 10-fold excess AA, phosphate buffer pH 7.4, 1% DMF, 20 °C
# Protocol: The platinum(IV)–succinimide complexes were dissolved in 2% DMF in phosphate buffer (500 mM, pH 7.4) to a final concentration of 2 mM. The solutions were then mixed 1:1 with a 20 mM stock of L-ascorbic acid in phosphate buffer (500 mM, pH 7.4) to obtain final concentrations of 1 mM complex, 10 mM L-ascorbic acid, and 1% DMF. The samples were incubated at 20 °C and measured on a Dionex UltiMate 3000 RS UPLC system with a Waters Acquity UPLC BEH C18 column (3 × 50 mm, pore size 1.7 μm) and absorption detection at 220 nm. Data points were taken at t = 0 and every 30 min for 6 h.
# [10] = molecular target: T1, albumin (Bos taurus, UniProt P02769); assay: SEC-ICP-MS albumin binding and serum stability in fetal calf serum; format: in vitro ADME; conditions: FCS + 150 mM phosphate buffer pH 7.4, 37 °C
# T1 construct: FCS was purchased from Sigma-Aldrich and buffered with 150 mM phosphate buffer (pH 7.4); tissue Sigma-Aldrich; host or cells: fetal calf serum
# Protocol: FCS was purchased from Sigma-Aldrich and buffered with 150 mM phosphate buffer (pH 7.4) to guarantee a stable pH. The maleimide-bearing platinum(IV) complexes were dissolved in 10% DMF in 150 mM phosphate buffer (pH 7.4) to 1 mM and diluted 1:10 in serum to obtain a final concentration of 100 μM. The samples were then incubated in the autosampler at 37 °C for 24 h and analyzed every 1 h. Between each sample, a pure water blank was measured. For SEC–ICP–MS measurements, an Agilent 1260 Infinity system coupled to an Agilent 7800 ICP–MS equipped with a dynamic reaction cell was used. Oxygen (purity 5.5, Messer Austria GmbH, Gumpoldskirchen, Austria) was used as reaction gas.
# [11] = tested on: SKOV3 cell lysates; assay: Reduction and 1-MDT release in SKOV3 lysates; format: in vitro ADME, human; conditions: 100 μM, 37 °C
# Protocol: SKOV3 cells were grown in four T225 […] cell culture flasks to reach a high cell number. On the day of cell lysate isolation, cells were washed with PBS, scraped from the surface, and centrifuged. Each cell pellet was lysed in ∼160 μL lysis buffer (15 mM NaCl 0.5% Triton X, ultrapure) and incubated on ice for 1 h. The samples were then centrifuged for 15 min at 14,000 rpm (4 °C), and the cleared lysate was pooled and kept at −80 °C until analysis. Cell lysates were treated with 2 mM stock solutions of respective complexes in 4% DMF and phosphate buffer (100 mM, pH 7.4) to obtain a final compound concentration of 100 μM and incubated at 37 °C. After 0, 4, 24, and 72 h, three volume equivalents of cold MeOH were added to sample aliquots. Samples were stored at 4 °C for 10 min and centrifuged (15,080g, 4 °C, 10 min). LC–MS analysis of the supernatant was performed on an Agilent 1260 Infinity system using a Waters Atlantis T3 column (150 mm × 4.6 mm) and absorption detection at 230 nm, coupled to a Bruker amaZon SL ESI-IT mass spectrometer. Milli-Q water, containing 0.1% formic acid, and acetonitrile, containing 0.1% formic acid, were used as eluents. A gradient of 1–99% acetonitrile in 20 min was used.
# [12] = 48 h incubation, with 5 equiv AA, read-out: CT26 IC50 values +AA, mean ± SD
# [13] = 48 h incubation, without AA, read-out: CT26 IC50 values, mean ± SD
# [14] = 72 h incubation, with 5 eq. AA, read-out: CT26 IC50 values + 5 eq. AA, mean
# [15] = 72 h incubation, without AA, read-out: CT26 IC50 values, mean
# [16] = 48 h incubation, with 5 equiv AA, read-out: HCT116 IC50 values +AA, mean ± SD
# [17] = 48 h incubation, without AA, read-out: HCT116 IC50 values, mean ± SD
# [18] = 72 h incubation, with 5 eq. AA, read-out: HCT116 IC50 values + 5 eq. AA, mean
# [19] = 72 h incubation, without AA, read-out: HCT116 IC50 values, mean
# [20] = with 5 eq. AA, read-out: SKOV3 IC50 values + 5 eq. AA, mean
# [21] = without AA, read-out: SKOV3 IC50 values, mean
# T1 sequence (P02769 25-607): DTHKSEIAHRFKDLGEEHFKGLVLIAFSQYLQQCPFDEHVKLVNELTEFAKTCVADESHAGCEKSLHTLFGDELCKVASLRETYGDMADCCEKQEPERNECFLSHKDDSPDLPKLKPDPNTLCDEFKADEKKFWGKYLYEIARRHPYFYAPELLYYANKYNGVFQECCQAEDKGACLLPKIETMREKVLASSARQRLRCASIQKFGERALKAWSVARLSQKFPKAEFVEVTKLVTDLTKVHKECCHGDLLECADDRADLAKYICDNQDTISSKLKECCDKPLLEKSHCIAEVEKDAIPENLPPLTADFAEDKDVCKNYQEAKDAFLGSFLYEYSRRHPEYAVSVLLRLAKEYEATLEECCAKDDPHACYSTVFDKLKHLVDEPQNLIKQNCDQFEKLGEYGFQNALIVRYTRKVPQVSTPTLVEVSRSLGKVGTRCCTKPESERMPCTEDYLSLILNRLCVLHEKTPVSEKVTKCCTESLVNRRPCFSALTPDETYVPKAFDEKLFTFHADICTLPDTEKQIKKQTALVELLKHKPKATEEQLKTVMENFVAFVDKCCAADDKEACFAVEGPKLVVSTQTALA
Compound,"IC50 [1, 12] [µM]","IC50 [1, 13] [µM]","IC50 [1, 14] [µM]","IC50 [1, 15] [µM]","IC50 [2, 16] [µM]","IC50 [2, 17] [µM]","IC50 [2, 18] [µM]","IC50 [2, 19] [µM]",IC50 [3] [µM],IC50 [4] [µM],"IC50 [5, 20] [µM]","IC50 [5, 21] [µM]",IC50 [6] [µM],IC50 [7] [µM],log D7.4 [8],time until complex completely reduced [9] [h],albumin binding in serum (in words) [10],1-MDT release after 72 h [11] [%],other results
"Cn1cc(CC([NH3+])C(=O)[O][Pt]23([O]C(=O)NCCCCCN4C(=O)CCC4=O)([NH]C4CCCCC4[NH]2)[O]C(=O)C(=O)[O]3)c2ccccc21.O=C([O-])C(F)(F)F [SucCa/IdoEs, (OC-6-34)-[(R)-2-Ammonio-3-(1-methyl-1H-indol-3-yl)propanoato][(1R,2R)-1,2-cyclohexanediamino][5-(2,5-dioxo-2,5-dihydro-1H-pyrrolidin-1-yl)pentylcarbamato]oxalatoplatinum(IV) Trifluoroacetate]",10.8 ± 1.04,60.1 ± 6.49,16.9,31.9,7.36 ± 1.14,26 ± 3.21,5.35,7.23,33.2,76.4,> 100,> 100,> 100,18.4 ± 3,–0.16,≤ 2,significant binding to albumin (tR ~4 min) could be observed for any of the compounds,~100,–
Cn1cc(C[C@@H](NC(=O)[O][Pt]2([O]C(=O)CCCCCN3C(=O)CCC3=O)[O]C(=O)C(=O)[O]2)C(=O)O)c2ccccc21.N[C@@H]1CCCC[C@H]1N [SucEs/IdoCa],26.7 ± 0.75,> 100,46,90.5,35.4 ± 6.54,> 100,20.8,82.1,77.5,> 100,> 100,> 100,> 100,53.1 ± 4.5,–2.02,–,significant binding to albumin (tR ~4 min) could be observed for any of the compounds,–,"ratio (IC50 without AA / with AA), CT26 ([1]; 48 h): ≥3; ratio (IC50 without AA / with AA), CT26 ([1]; 72 h): 1.97; ratio (IC50 without AA / with AA), HCT116 ([2]; 48 h): ≥2.8; ratio (IC50 without AA / with AA), HCT116 ([2]; 72 h): 3.94; complex intact after 6 h [9]: 90%; still present as platinum(IV) species after 72 h [11]: ~50%"
"Cn1cc(C[C@@H]([NH3+])C(=O)[O][Pt]2([O]C(=O)CCCCCN3C(=O)CCC3=O)[O]C(=O)C(=O)[O]2)c2ccccc21.N[C@@H]1CCCC[C@H]1N.O=C([O-])C(F)(F)F [SucEs/IdoEs, (OC-6-44)-[(R)-2-Ammonio-3-(1-methyl-1H-indol-3-yl)propanoato][(1R,2R)-1,2-cyclohexanediamino][6-(2,5-dioxopyrrolidin-1-yl)hexanoato]oxalatoplatinum(IV) Trifluoroacetate]",–,91.5 ± 3.84,18.1,44.9,6.94 ± 0.33,22.8 ± 1.15,4.89,5.45,44.2,81.7,> 100,> 100,> 100,19.4 ± 1.2,–0.30,≤ 2,significant binding to albumin (tR ~4 min) could be observed for any of the compounds,~100,–
